Experimental data reported in patent publication US20080045796A1, “HISTOFLUORESCENT STAIN COMPOSITION FOR ENDOSCOPY” (PENTAX CORPORATION, priority 2006, published 2008).

Assays:
large intestine = test: Perfusion through the heart with Patent Blue, confocal observation of large intestine specimen and frozen section; type: in vivo, mouse
Protocol: Patent Blue was used for staining and observation with a confocal microscope. Patent Blue (Sigma-Aldrich Corp., Patent Blue VF) was prepared to 10 mg/mL with physiological saline, and was perfused through the heart of a mouse (ddY, 6 weeks old, male) to perform staining.
The mouse was subjected to laparotomy to extract the large intestine, and an observation was made for a specimen with a confocal system.
The imaging conditions were such that a lens of 20 magnifications was used, and the pinhole diameter was 1.00 airy. As the confocal microscope, TCP-SP2 manufactured by Leica Microsystems Corp. was used.
A frozen section prepared by slicing the mouse large intestine stained in Example 9 to approximately 6 μm was observed under fluorescence to observe the stainability. An adjacent frozen section was used to perform HE staining and was compared to characterize the sites where fluorescent observation was possible by Patent Blue staining.
(§1) A confocal microscope was used for the observation, which was made at 20, 40 or 63 magnifications.

[1] = Measurement of absorption spectrum and fluorescence excitation spectrum; type: physicochemical; settings: for maximum absorption wavelength: 1.0 mg/ml, spectrophotometer 200 to 750 nm; for maximum excitation wavelength / maximum fluorescence wavelength: fluorescence spectrophotometer
Protocol: Measurement of an absorption spectrum and a fluorescence excitation spectrum of Fast Green FCF was performed. The Fast Green FCF (Wako Pure Chemical Industries, Ltd.) was adjusted to 1.0 mg/ml, and the light absorbance was continuously measured at a wavelength of from 200 to 750 nm using a spectrophotometer (manufactured by Shimadzu Corp., BioSpec-1600) to determine the wavelength at which the absorbance reached the maximum. The maximum absorption wavelength of 628 nm thus obtained was irradiated as an excitation wavelength, and the wavelength of the scattered light detected in the perpendicular direction to the light axis of the excitation light was measured using a fluorescence spectrophotometer (manufactured by Shimadzu Corp., RF-1500), thus to obtain a maximum excitation wavelength of 628 nm and a maximum fluorescence wavelength of 652 nm.

mouse large intestine = test: Tissue staining by perfusion method, confocal observation of extracted large intestine specimen; settings: 1 mg/mL with physiological saline
Protocol: IndoCyanine Green (adjusted to 1 mg/mL with physiological saline), which is a medical contrast agent, was used to perform tissue staining. Mouse large intestine was stained by a perfusion method, and observation of an extracted specimen of the large intestine was performed using a confocal microscope (Leica Microsystems Corp., TCP-SP2).

gastrointestinal lumen = test: Perfusion through the heart with Guinea Green, observation of a frozen section; type: in vivo, mouse; settings: 10 mg/mL, 600 μL perfused through the heart
Protocol: The gastrointestinal lumen was stained using Guinea Green, and the stainability was examined by observation of a frozen section.
Guinea Green (Sigma-Aldrich Corp., Guinea Green B) was prepared to 10 mg/mL with physiological saline, and was perfused through the heart of a mouse (ddY, 6 weeks old, male) in an amount of 600 μL.
Also, it was compared with another frozen section used to perform HE staining, and the sites capable of fluorescent observation by Guinea Green staining were characterized.
as §1

[2] = test system: esophagus part of a mouse; test: Extracted esophagus stained, confocal microscope observation; settings: 10 mg/mL, pH 7
Protocol: The esophagus part of a mouse (ddY, 11 weeks old, male) was extracted, stained using Brilliant Blue FCF, and observed with a confocal microscope (Leica Microsystems Corp., TCP-SP2).
The Brilliant Blue FCF used was prepared to 10 mg/mL using a 0.1 M sodium phosphate buffer solution (pH 7).
The imaging conditions were such that the pinhole diameter was 1.00 airy, and a lens of 20 magnifications was used.

With Patent Blue VF the “staining visible by naked eyes” value (large intestine; 10 mg/mL, 600 μL perfused through the heart) was “the limbs were bluish in color to the extent of being visible by naked eyes”, the “fluorescence of frozen section” value (large intestine; approximately 6 μm frozen section) was “strong fluorescence in the lumen” and the “confocal observation of the tissue” value (large intestine; area 60 μm deep from the luminal surface) was “the lamina propria mucosae could be observed clear”. For the same compound, the observation capability (large intestine; frozen section under fluorescence) was “high”, the “can be excited at, for example” value [1] was 641 nm and the fluorescence detected at [1] was 654 nm. It also gave a maximum absorption wavelength [1] of 639 nm, a maximum excitation wavelength [1] of 641 nm and a maximum fluorescence wavelength [1] of 654 nm.

For CC1(C)C(/C=C/C=C/C=C/C=C2\N(CCCCS(=O)(=O)O)c3ccc4ccccc4c3C2(C)C)=[N+](CCCCS(=O)(=O)[O-])c2ccc3ccccc3c21 [IndoCyanine Green, reference compound], the “fluorescence intensity inside the tissue” value (mouse large intestine) was “the fluorescence intensity was very low” and the “fluorescence intensity (fluorescence spectrum)” value ([1]; compared with Fast Green FCF, FIG. 2) was “the fluorescence intensity is lower than that of the Fast Green FCF”.

In the case of CCN(Cc1cccc(S(=O)(=O)O)c1)c1ccc(C(=C2C=CC(=[N+](CC)Cc3cccc(S(=O)(=O)O)c3)C=C2)c2ccc(S(=O)(=O)O)cc2)cc1.[Na+].[Na+] [Light Green SF], the “can be excited at, for example” value [1] was 633 nm, the fluorescence detected at [1] was 652 nm and the maximum absorption wavelength [1] was 635 nm. It also gave a maximum excitation wavelength [1] of 633 nm and a maximum fluorescence wavelength [1] of 652 nm.

With CCN(Cc1cccc(S(=O)(=O)[O-])c1)c1ccc(C(=C2C=CC(=[N+](CC)Cc3cccc(S(=O)(=O)[O-])c3)C=C2)c2ccccc2)cc1.[Na+] [Guinea Green B] the “fluorescence of frozen section” value (gastrointestinal lumen) was “the lumen side exhibited strong fluorescence”, the “observation capability of the confocal system” value (gastrointestinal lumen) was “high” and the “can be excited at, for example” value [1] was 624 nm. For the same compound, the fluorescence detected at [1] was 635 nm, the maximum absorption wavelength [1] was 620 nm and the maximum excitation wavelength [1] was 624 nm. The maximum fluorescence wavelength [1] was 635 nm.

In the case of CCN(Cc1cccc(S(=O)(=O)O)c1)c1ccc(C(=C2C=CC(=[N+](CC)Cc3cccc(S(=O)(=O)O)c3)C=C2)c2ccccc2S(=O)(=O)[O-])cc1.N.N [Alphazurine FG], the “can be excited at, for example” value [1] was 633 nm, the fluorescence detected at [1] was 643 nm and the maximum absorption wavelength [1] was 630 nm. It also gave a maximum excitation wavelength [1] of 633 nm and a maximum fluorescence wavelength [1] of 643 nm.

For CCN(Cc1cccc(S(=O)(=O)[O-])c1)c1ccc(C(=C2C=CC(=[N+](CC)Cc3cccc(S(=O)(=O)[O-])c3)C=C2)c2ccccc2S(=O)(=O)[O-])cc1.[Na+].[Na+] [Brilliant Blue FCF], the “fluorescent contrast in confocal images” value [2] was “provide fluorescent contrast for the intercellular space of the esophagus epithelial cells”, the “depth from the luminal surface of clear images” value ([2]; images at every 5.0 μm) was “up to 100 μm” and the “can be excited at, for example” value [1] was 629 nm. The fluorescence detected at [1] was 650 nm, the maximum absorption wavelength [1] was 629 nm and the maximum excitation wavelength [1] was 619 nm. It also gave a maximum fluorescence wavelength [1] of 650 nm.
